# Experimental data: US20250382269A1 (CFD Research Corporation, priority 2019, published 2025)
# Values joined by “and” are separate entries in the source; they are usually repeats but may differ in a detail not shown here. Equal values may be shown once. Read-outs that look alike come from different tables or passages of the source.
# Experiments:
# [1] = system: B. subtilis / cytotoxicity EC50; assay: Selectivity index (SI) using B. subtilis MICs
# Procedure: Additionally, the antimicrobial compounds were analyzed for cytotoxicity. […] We utilized the standard MTT assay (Promega CellTiter 96) and GraphPad Prism 7 software to determine EC50 values for each analogue. Briefly, 20,000 HepG2 cells in 200 μl of the ATCC recommended media were seeded in each well of a 96-well plate with a moisture barrier created in the outermost wells. The cells were allowed to attach overnight at 37° C., and then observed under phase contrast microscopy for proper morphological characteristics. If cells appeared healthy and attached, test compounds were added in 7 concentrations from […] (n=3) from freshly prepared DMSO stock plates. […] Once incubations were complete, the spectrophotometric absorbance of the samples was measured at a wavelength of 595 nm. […] For the HepaRG assay, NoSpin HepaRG™ cells (Lonza, cat #NSHPRG) were thawed and plated with 20,000 cells per well. They were allowed to attach for 4 h (optimal DME profile per Lonza's testing) before dosing following the identical protocol as above.
# Neisseria gonorrhoeae = assay: microbe, parasite or virus in culture; assay type: cell-based
# [2] = Toxicity study in mice, body weight over 7 days; assay type: in vivo, Balb/c mice; conditions: for toxicity in mice (body weight over 7 days): 6-week-old Balb/c mice, vehicle 40% PEG300 in 0.9% NaCl
# Text: The vehicle is 40% PEG300 solution in 0.9% NaCl. […] Thus, the compounds are useful for in vivo antimicrobial administration.
# [3] = ATCC49226, read-out: Neisseria gonorrhoeae ATCC 49226 MIC, strain ATCC 49226
# [4] = read-out: Neisseria gonorrhoeae WHO 901 MIC, strain WHO 901
# [5] = read-out: Neisseria gonorrhoeae WHO 914 MIC, strain WHO 914
# [6] = IP 0.1 mg/kg, Day 0, individual animals, 0.1 mg/kg
# [7] = IP 0.1 mg/kg, Day 1, individual animals, 0.1 mg/kg
# [8] = IP 0.1 mg/kg, Day 2, individual animals, 0.1 mg/kg
# [9] = IP 0.1 mg/kg, Day 3, individual animals, 0.1 mg/kg
# [10] = IP 0.1 mg/kg, Day 4, individual animals, 0.1 mg/kg
# [11] = IP 0.1 mg/kg, Day 5, individual animals, 0.1 mg/kg
# [12] = IP 0.1 mg/kg, Day 6, individual animals, 0.1 mg/kg
# [13] = IP 0.1 mg/kg, Day 7, individual animals, 0.1 mg/kg
# [14] = IP 1 mg/kg, Day 0, individual animals, 1 mg/kg
# [15] = IP 1 mg/kg, Day 1, individual animals, 1 mg/kg
# [16] = IP 1 mg/kg, Day 2, individual animals, 1 mg/kg
# [17] = IP 1 mg/kg, Day 3, individual animals, 1 mg/kg
# [18] = IP 1 mg/kg, Day 4, individual animals, 1 mg/kg
# [19] = IP 1 mg/kg, Day 5, individual animals, 1 mg/kg
# [20] = IP 1 mg/kg, Day 6, individual animals, 1 mg/kg
# [21] = IP 1 mg/kg, Day 7, individual animals, 1 mg/kg
# [22] = IP 10 mg/kg, Day 0, individual animals, 10 mg/kg
# [23] = IP 10 mg/kg, Day 1, individual animals, 10 mg/kg
# [24] = IP 10 mg/kg, Day 2, individual animals, 10 mg/kg
# [25] = IP 10 mg/kg, Day 3, individual animals, 10 mg/kg
# [26] = IP 10 mg/kg, Day 4, individual animals, 10 mg/kg
# [27] = IP 10 mg/kg, Day 5, individual animals, 10 mg/kg
# [28] = IP 10 mg/kg, Day 6, individual animals, 10 mg/kg
# [29] = IP 10 mg/kg, Day 7, individual animals, 10 mg/kg
smiles,measurement,setting,value
"Fc1ccccc1Sc1c[nH]c2ccc(C(F)(F)F)cc12 [Compound 177D, 3-((2-fluorophenyl)thio)-5-(trifluoromethyl)-1H-indole]",SI (selectivity index),[1],17.4
"OCc1[nH]c2ccc(Br)cc2c1Sc1ccccc1Br [Compound 177H, (5-bromo-3-((2-bromophenyl)thio)-1H-indol-2-yl)methanol]",SI (selectivity index),[1],20.4
"CCc1ccccc1Sc1c(CO)[nH]c2ccc(C(F)(F)F)cc12 [Compound 177I, (3-((2-ethylphenyl)thio)-5-(trifluoromethyl)-1H-indol-2-yl)methanol]",SI (selectivity index),[1],10.0
Cc1ccccc1Oc1c[nH]c2ccc(F)cc12,MIC,Neisseria gonorrhoeae; [3],8 µg/mL
same,MIC,Neisseria gonorrhoeae; [4],4 µg/mL
same,MIC,Neisseria gonorrhoeae; [5],8 µg/mL
Fc1ccc2[nH]cc(Cc3ccc(Br)cc3)c2c1 [3-(4 bromobenzyl)-5-fluoro-1H-indole],MIC,Neisseria gonorrhoeae; [3],4 µg/mL
Cc1cccc(Cc2c[nH]c3ccc(F)cc23)c1,MIC,Neisseria gonorrhoeae; [3],8 µg/mL
same,MIC,Neisseria gonorrhoeae; [4],8 µg/mL
same,MIC,Neisseria gonorrhoeae; [5],> 8 µg/mL
Brc1ccc(Oc2c[nH]c3ccc(Br)cc23)cc1 [5-bromo-3-(4-bromophenoxy)-1H-indole],MIC,Neisseria gonorrhoeae; [3],4 µg/mL
same,MIC,Neisseria gonorrhoeae; [4],2 µg/mL
same,MIC,Neisseria gonorrhoeae; [5],4 µg/mL
c1ccc(Oc2c[nH]c3ccccc23)cc1 [3-phenoxy-1H-indole],MIC,Neisseria gonorrhoeae; [3],> 8 µg/mL
same,MIC,Neisseria gonorrhoeae; [4],> 8 µg/mL
same,MIC,Neisseria gonorrhoeae; [5],> 8 µg/mL
"Oc1ccccc1Sc1c[nH]c2ccc(Br)cc12 [Compound 174AI, 2-((5-bromo-1H-indol-3-yl)thio)phenol]",toxicity in mice (body weight over 7 days),[2],did not have significant toxicity
same,Animal body weight,[2]; [6],0.023 kg (2×) and 0.022 kg
same,Animal body weight,[2]; [7],0.022 kg (2×) and 0.021 kg
same,Animal body weight,[2]; [8],0.023 kg and 0.022 kg and 0.021 kg
same,Animal body weight,[2]; [9],0.024 kg and 0.022 kg (2×)
same,Animal body weight,[2]; [10],0.024 kg and 0.022 kg (2×)
same,Animal body weight,[2]; [11],0.024 kg and 0.022 kg (2×)
same,Animal body weight,[2]; [12],0.024 kg and 0.022 kg (2×)
same,Animal body weight,[2]; [13],0.023 kg (2×) and 0.022 kg
same,Animal body weight,[2]; [14],0.022 kg and 0.024 kg and 0.026 kg
same,Animal body weight,[2]; [15],0.023 kg and 0.024 kg and 0.026 kg
same,Animal body weight,[2]; [16],0.023 kg and 0.025 kg and 0.026 kg
same,Animal body weight,[2]; [17],0.023 kg and 0.025 kg and 0.027 kg
same,Animal body weight,[2]; [18],0.022 kg and 0.025 kg and 0.026 kg
same,Animal body weight,[2]; [19],0.022 kg and 0.025 kg and 0.026 kg
same,Animal body weight,[2]; [20],0.022 kg and 0.024 kg and 0.026 kg
same,Animal body weight,[2]; [21],0.022 kg and 0.024 kg and 0.026 kg
same,Animal body weight,[2]; [22],0.022 kg and 0.026 kg and 0.024 kg
same,Animal body weight,[2]; [23],0.021 kg and 0.024 kg and 0.022 kg
same,Animal body weight,[2]; [24],0.022 kg and 0.024 kg and 0.023 kg
same,Animal body weight,[2]; [25],0.022 kg and 0.025 kg and 0.023 kg
same,Animal body weight,[2]; [26],0.022 kg and 0.026 kg and 0.024 kg
same,Animal body weight,[2]; [27],0.023 kg and 0.026 kg and 0.024 kg
same,Animal body weight,[2]; [28],0.022 kg and 0.026 kg and 0.024 kg
same,Animal body weight,[2]; [29],0.022 kg and 0.026 kg and 0.023 kg
CC(c1ccccc1)c1c[nH]c2ccc(F)cc12 (stereo not shown),MIC,Neisseria gonorrhoeae; [3],8 µg/mL
same,MIC,Neisseria gonorrhoeae; [4],4 µg/mL
same,MIC,Neisseria gonorrhoeae; [5],8 µg/mL
Brc1ccc(Oc2c[nH]c3ccccc23)cc1 [3-(4-bromophenoxy)-1H-indole],MIC,Neisseria gonorrhoeae; [3],> 8 µg/mL
same,MIC,Neisseria gonorrhoeae; [4],4 µg/mL
same,MIC,Neisseria gonorrhoeae; [5],> 8 µg/mL
"Cc1[nH]c2ccc(Br)cc2c1Sc1ccccc1Br [Compound 174AZ, 5-bromo-3-((2-bromophenyl)thio)-2-methyl-1H-indole]",toxicity in mice (body weight over 7 days),[2],did not have significant toxicity
same,Animal body weight,[2]; [6],0.023 kg (2×) and 0.025 kg
same,Animal body weight,[2]; [7],0.022 kg and 0.024 kg and 0.023 kg
same,Animal body weight,[2]; [8],0.022 kg and 0.025 kg and 0.023 kg
same,Animal body weight,[2]; [9],0.022 kg and 0.025 kg and 0.023 kg
same,Animal body weight,[2]; [10],0.023 kg (2×) and 0.025 kg
same,Animal body weight,[2]; [11],0.022 kg and 0.025 kg and 0.023 kg
same,Animal body weight,[2]; [12],0.022 kg and 0.025 kg and 0.023 kg
same,Animal body weight,[2]; [13],0.022 kg (2×) and 0.025 kg
same,Animal body weight,[2]; [14],0.024 kg (2×) and 0.025 kg
same,Animal body weight,[2]; [15],0.023 kg and 0.024 kg (2×)
same,Animal body weight,"[2]; IP 1 mg/kg, Day 2, individual animals",0.024 kg
same,Animal body weight,[2]; [17],0.025 kg and 0.024 kg (2×)
same,Animal body weight,[2]; [18],0.025 kg (2×) and 0.024 kg
same,Animal body weight,[2]; [19],0.025 kg and 0.023 kg and 0.024 kg
same,Animal body weight,[2]; [20],0.025 kg and 0.024 kg (2×)
same,Animal body weight,[2]; [21],0.025 kg and 0.023 kg and 0.024 kg
same,Animal body weight,[2]; [22],0.023 kg (2×) and 0.024 kg
same,Animal body weight,[2]; [23],0.022 kg (2×) and 0.023 kg
same,Animal body weight,[2]; [24],0.022 kg and 0.023 kg (2×)
same,Animal body weight,[2]; [25],0.022 kg (2×) and 0.023 kg
same,Animal body weight,"[2]; IP 10 mg/kg, Day 4, individual animals",0.023 kg
same,Animal body weight,"[2]; IP 10 mg/kg, Day 5, individual animals",0.023 kg
same,Animal body weight,[2]; [28],0.022 kg (2×) and 0.023 kg
same,Animal body weight,[2]; [29],0.023 kg (2×) and 0.022 kg
Brc1ccc2[nH]cc(Oc3ccccc3)c2c1 [5 bromo-3-phenoxy-1H-indole],MIC,Neisseria gonorrhoeae; [3],8 µg/mL
same,MIC,Neisseria gonorrhoeae; [4],4 µg/mL
same,MIC,Neisseria gonorrhoeae; [5],8 µg/mL
Fc1ccc2[nH]cc(Cc3ccccc3F)c2c1,MIC,Neisseria gonorrhoeae; [3],8 µg/mL
same,MIC,Neisseria gonorrhoeae; [4],8 µg/mL
same,MIC,Neisseria gonorrhoeae; [5],> 8 µg/mL
"Fc1ccccc1Sc1c[nH]c2ccc(Br)cc12 [Compound 174AU, 5-bromo-3-((2-fluorophenyl)thio)-1H-indole]",toxicity in mice (body weight over 7 days),[2],did not have significant toxicity
same,Animal body weight,[2]; [6],0.026 kg and 0.023 kg and 0.024 kg
same,Animal body weight,[2]; [7],0.024 kg and 0.022 kg and 0.023 kg
same,Animal body weight,[2]; [8],0.025 kg and 0.022 kg and 0.023 kg
same,Animal body weight,[2]; [9],0.025 kg and 0.022 kg and 0.023 kg
same,Animal body weight,[2]; [10],0.025 kg and 0.022 kg and 0.023 kg
same,Animal body weight,[2]; [11],0.025 kg and 0.023 kg and 0.024 kg
same,Animal body weight,[2]; [12],0.025 kg and 0.022 kg and 0.023 kg
same,Animal body weight,[2]; [13],0.024 kg and 0.022 kg and 0.023 kg
same,Animal body weight,[2]; [14],0.026 kg and 0.022 kg and 0.025 kg
same,Animal body weight,[2]; [15],0.025 kg (2×) and 0.022 kg
same,Animal body weight,[2]; [16],0.026 kg and 0.022 kg and 0.025 kg
same,Animal body weight,[2]; [17],0.026 kg and 0.022 kg and 0.025 kg
same,Animal body weight,[2]; [18],0.026 kg and 0.023 kg and 0.025 kg
same,Animal body weight,[2]; [19],0.026 kg and 0.023 kg and 0.025 kg
same,Animal body weight,[2]; [20],0.025 kg (2×) and 0.023 kg
same,Animal body weight,[2]; [21],0.026 kg and 0.024 kg and 0.025 kg
same,Animal body weight,[2]; [22],0.024 kg (2×) and 0.025 kg
same,Animal body weight,[2]; [23],0.023 kg (2×) and 0.024 kg
same,Animal body weight,[2]; [24],0.023 kg (2×) and 0.025 kg
same,Animal body weight,[2]; [25],0.024 kg and 0.023 kg and 0.025 kg
same,Animal body weight,[2]; [26],0.023 kg (2×) and 0.025 kg
same,Animal body weight,[2]; [27],0.023 kg (2×) and 0.026 kg
same,Animal body weight,[2]; [28],0.022 kg and 0.023 kg and 0.026 kg
same,Animal body weight,[2]; [29],0.022 kg and 0.023 kg and 0.026 kg
